From patent publication US6759385B1, “Methods to treat undesirable immune responses” (Regents of the University of Minnesota, priority 1997, dated 2004)

Columns and labels:
[1] = test system: CD8+ depleted spleen cells; assay: Lymphocyte proliferation assay, CD8+ depleted spleen cells of IL-4 KO mice; type: cell-based, mouse; details: IL-4 KO mice immunized with TAChR, 10 μg/ml peptide
Experimental: Lymphocyte Proliferation Assay. Two weeks after the last immunization, spleen cells (Bellone et al., 1991) were obtained from three identically treated IL-4 KO mice. The cells were pooled and depleted them in CD8^+ cells using paramagnetic beads and rat anti-mouse CD8^+ antibody (Pharmingen, San Diego, Calif.). The cells were suspended in RPMI-1640 (Gibco, Grand Island, N.Y.) supplemented with 10% heat inactivated fetal calf serum (Gibco), 50 μM 2-mercaptoethanol, 1 mM L-glutamine, 10 mM Hepes, 1 mM sodium pyruvate, 100 U/ml penicillin and 100 μg/ml streptomycin (×10^6 cells/ml). The cells were seeded in triplicate in 96 flat-bottom well plates (200 μl/well). One of the following antigens or stimulants was added: 10 μg/ml phytohemoagglutinine (PHA) (Sigma); 10 μg/ml TAChR; the pools of overlapping peptides spanning the α, β, γ, or δ subunit sequences (5 μg/ml) of each peptide); and 10 μg/ml of the individual a subunit peptides. Controls were triplicate wells cultivated without any antigen, or with or a 20-residue control peptide synthesized by the same method, unrelated to the TAChR sequence (10 μg). After four days the cells were labeled for 16 hours with ^3H-thymidine (1 μCi per well, specific activity 6.7 Ci/mmol, Dupont, Boston, Mass.), and harvested (Titertek, Skatron, Sterling, Va.). The ^3H-thymidine incorporation was measured by liquid scintillation.

[2] = test system: established EMG in B6 mice; assay: Subcutaneous treatment, post-priming protocol, established EMG (Example IV); type: in vivo, mouse; details: at 44 weeks, s.c. post-priming protocol
Experimental: B6 mice (Jackson Laboratory, Bar Harbor, Me.) were injected s.c. with 100 μl of PBS containing increasing amounts of a pool of the same amount in weight of each of the three epitope peptides Tα150-169, Tα180-200 and Tα360-378 (‘peptide pool’), or 200 μg of Tα150-169 alone, or 100 μl of PBS containing 0.1% Triton X-100 and 10 μg of solubilized TAChR. Two different treatment schedules were used, referred to as prevention and post-priming protocols. In the prevention protocol, the peptides or solubilized TAChR were administered twice per week for 14 weeks, starting 2 weeks before the beginning of the immunization with TAChR. In the post-priming protocol, peptides or solubilized TAChR were administered twice per week for […], starting 8 weeks after the beginning of the TAChR immunization. Control mice received 100 μl of peptide-free PBS, following the same schedules.
Immunization 8-10 week old mice were immunized by s.c. injections, along the back and at the base of the tail, of TAChR (a total of 50 μg in 100 μl of PBS for each immunization) emulsified in an equal volume of CFA for the first injection, and IFA for the following two boosts. The mice were injected for a total of three times at 3-4 week intervals. At the end of the observation period, the mice received a third boost, and were sacrificed 5-7 days later. Control mice were injected with clean PBS in the appropriate adjuvant.
Evaluation of the symptoms of EMG The EMG symptoms were quantified using a forced exercise test sensitized by i.p. injection of a minute amount of pancuronium bromide (0.03 mg/kg) just before the test (Karachunski et al., 1995). The mouse hangs from a grid suspended above a soft padding, and the time it takes the mouse to fall three times (‘holding time’) was measured. The test is parametric, and gives a quantitative assessment of the mouse weakness. The myasthenic nature of the weakness was verified by injecting i.p. edrophonium chloride (Reversol, Organon, West Orange, N.J.), which is a cholinesterase inhibitor. […] The mice were tested without knowledge of their treatment. […]

[3] = test system: EMG in IL-4 KO mice immunized with TAChR; assay: Transfer of CD4+ cells from peptide-treated B6 mice into IL-4 KO mice, EMG; type: in vivo, mouse; details: cells three times, three TAChR immunizations, 14 weeks
Experimental: CD4^+ cells from wild type B6 mice that sniffed TACBR CD4^+ epitopes protect IL-4 KO R6 mice from development of EMG. Spleen CD4^+ cells were purified from wild type B6 mice that had sniffed a pool of the AChR a subunit peptide epitopes α50-169, α81-200 and α361-380, or peptide-free PBS (sham-treated). 10×10^6 CD4^+ cells from peptide-treated or sham-treated B6 mice to IL-4 KO B6 mice were administered i.v. (blue arrowhead in FIG. 25), just prior to a single immunization with TAChR (red arrowhead in FIG. 25). The strength of the mice was measured every 2 weeks, for 20 weeks after the TAChR immunization (FIG. 25). […] The lesser frequency of EMG as compared to the experiments described above is likely due to the use of a single immunizing injection of TAChR, or to variability in the susceptibility to EMG in different batch of IL-4 KO mice, similar to that described in other mouse strains.
All IL-4 KO mice treated with CD4^+ cells from sham-treated B6 donors developed EMG from week four onwards (FIG. 26). […] By week 10 (i.e., two weeks after the second TAChR immunization). […]

peptide Tα150-169: synthetic peptide corresponding to residues 150-169 of the TAChR α subunit (TYDGTKVSISPESDRPDLST; UniProt P02710 174-193, looked up, fragment)
recognition of individual peptide by cells from sham-treated mice [1]: recognized strongly | mice with holding times of 6.2 or less [2]: 6% | recipients that developed EMG [3]: Only one mouse
